Test results as given in patent publication US20120258980A1, “Antibacterial Agent for Drug-Resistant Bacteria, Method for Screening for Same, and Use of Same” (priority 2009, published 2012).
Converted amounts (≈) assume the structure as drawn. Where two headings read alike, the source gives them in different places.

Experiments:
[1] = test system: methicillin-susceptible S. aureus (MSSA), MRSA and mutants thereof; experiment: MIC measurement, Test Example 3 (MSSA, MRSA and sequential gyrA/grlA quinolone-resistant mutants); format: cell-based, Staphylococcus aureus; conditions: Staphylococcus aureus
Source text: That is, the first-step quinolone-resistant mutants are bacterial strains which are the same as their parent strains (clinical isolates) except that the genes shown in the corresponding parts of Table 1-1 are mutated. The second-step quinolone-resistant mutants are bacterial strains which are the same as the first-step quinolone-resistant mutants except that the genes shown in the corresponding parts of Table 1-1 are further mutated. The third-step quinolone-resistant mutants are bacterial strains which are the same as the second-step quinolone-resistant mutants except that the genes shown in the corresponding parts of Table 1-1 are further mutated. The fourth-step quinolone-resistant strain is a bacterial strain which is the same as the third-step quinolone-resistant mutant bacteria except that the gene shown in the corresponding part of Table 1-1 is further mutated.
(§1) Each of the bacterial strains listed in Table 1-1 was shake-cultured at 37° C. overnight in 4 mL of a medium (Tryptical Soy Broth: TSB, product of Becton Dickinson and Company). FDA209P was used as a control.
(§2) After completion of culturing, the resultant culture was suspended in a cation-adjusted Mueller Hinton Broth (CAMHB, product of Becton Dickinson and Company). Then, the obtained bacterial culture was adjusted in absorbance with the CAMHB so that the absorbance at 578 nm of the bacterial culture was adjusted to 0.3 measured by an absorption spectrometer. In addition, the resultant bacterial culture was 500-fold diluted with the CAMHB.
(§3) Each of the 500-fold diluted, pre-cultured bacterial cultures was added at 50 μL/well to the CAMHB containing the quinolones and the nybomycins at various concentrations (50 μL/well), followed by statically culturing at 37° C. overnight.
(§4) After completion of culturing, the growth of the bacteria was visually determined based on turbidity to measure MIC in each bacterial strain.

[2] = test system: VISA clinical isolates of MRSA (VI-MRSA) and of MSSA (VI-MSSA); experiment: microbe, parasite or virus in culture; format: cell-based, Staphylococcus aureus
Method: as §1, §2, §3, §4
(§5) Here, the glycopeptides used were VCM and TEIC. The β-lactam used was OXA.

[3] = test system: VRSA clinical isolates; experiment: microbe, parasite or virus in culture; format: cell-based; conditions: Staphylococcus aureus
Method: as §1, §2, §3, §4, §5

[4] = test system: Enterococcus faecalis; experiment: MIC measurement, Test Example 6 (enterococcus); format: cell-based; conditions: Enterococcus faecalis, read-out: MIC
Method: as §1, §2, §3, §4
Quinolones and nybomycins were evaluated for antibacterial activity against Enterococcus faecalis shown in Table 6, wherein the other strains than NCTC12201 and NCTC12203 were subdivided from Shionogi & Co., Ltd (note that these strains are available also from the Department of Bacteriology, Juntendo University). The NCTC strains are both vancomycin-resistant E. faecalis and available from the National Collection of Type Cultures (NCTC).

Question: What does the source list for `C[C@H]1COc2c(N3CCN(C)CC3)c(F)cc3c(=O)c(C(=O)O)cn1c23` [LVFX, levofloxacin]?
Answer: MIC ([1]; FDA209P / MRSA / MSSA, FDA209P (MSSA), control, read-out: MIC): ≤ 0.063 µg/mL; MIC ([1]; MR5867-4, fourth-step mutant, further gyrA E88K): > 128 µg/mL; MIC ([1]; MS5935-3, third-step mutant, further grlA E84K): 64 µg/mL (≈ 177 µM); MIC ([1]; MS5952-3, third-step mutant, further grlA A116V): 32 µg/mL (≈ 88.6 µM); MIC ([2]; Staphylococcus aureus, 99/3700-W, VI-MRSA, The United Kingdom): 16 µg/mL (≈ 44.3 µM); MIC ([2]; Staphylococcus aureus, 99/3759-V, VI-MRSA, The United Kingdom): 16 µg/mL (≈ 44.3 µM); MIC ([2]; Staphylococcus aureus, 28160, VI-MRSA, South African Republic): 8 µg/mL (≈ 22.1 µM); MIC ([2]; Staphylococcus aureus, 98141, VI-MRSA, France): 16 µg/mL (≈ 44.3 µM); MIC ([2]; Staphylococcus aureus, A7 (JCSC4842), VI-MRSA, Taiwan): 8 µg/mL (≈ 22.1 µM); MIC ([2]; Staphylococcus aureus, AMC11094, VI-MRSA, Korea): 16 µg/mL (≈ 44.3 µM); MIC ([2]; Staphylococcus aureus, B7 (JCSC4852), VI-MRSA, Taiwan): 8 µg/mL (≈ 22.1 µM); MIC ([2]; Staphylococcus aureus, BR1, VI-MRSA, Brazil): 16 µg/mL (≈ 44.3 µM); MIC ([2]; Staphylococcus aureus, BR2, VI-MRSA, Brazil): 8 µg/mL (≈ 22.1 µM); MIC ([2]; Staphylococcus aureus, BR3, VI-MRSA, Brazil): 16 µg/mL (≈ 44.3 µM); MIC ([2]; Staphylococcus aureus, BR4, VI-MRSA, Brazil): 8 µg/mL (≈ 22.1 µM); MIC ([2]; Staphylococcus aureus, BR5, VI-MRSA, Brazil): 16 µg/mL (≈ 44.3 µM); MIC ([2]; Staphylococcus aureus, HIP06297, VI-MRSA, America): 4 µg/mL (≈ 11.1 µM); MIC ([2]; Staphylococcus aureus, HIP06854, VI-MRSA, America): 16 µg/mL (≈ 44.3 µM); MIC ([2]; Staphylococcus aureus, HIP07920, VI-MRSA, America): 8 µg/mL (≈ 22.1 µM); MIC ([2]; Staphylococcus aureus, HIP07930, VI-MRSA, America): 32 µg/mL (≈ 88.6 µM); MIC ([2]; Staphylococcus aureus, HIP08926, VI-MRSA, America): 16 µg/mL (≈ 44.3 µM); MIC ([2]; Staphylococcus aureus, HIP09143, VI-MRSA, America): 32 µg/mL (≈ 88.6 µM); MIC ([2]; Staphylococcus aureus, HIP09313, VI-MRSA, America): 8 µg/mL (≈ 22.1 µM); MIC ([2]; Staphylococcus aureus, HIP09433, VI-MRSA, America): 32 µg/mL (≈ 88.6 µM); MIC ([2]; Staphylococcus aureus, HIP09662, VI-MRSA, America): 32 µg/mL (≈ 88.6 µM); MIC ([2]; Staphylococcus aureus, HIP09735, VI-MRSA, America): 8 µg/mL (≈ 22.1 µM); MIC ([2]; Staphylococcus aureus, HIP09737, VI-MSSA, America): 32 µg/mL (≈ 88.6 µM); MIC ([2]; Staphylococcus aureus, HIP09740, VI-MRSA, America): 32 µg/mL (≈ 88.6 µM); MIC ([2]; Staphylococcus aureus, HIP10267, VI-MRSA, America): 32 µg/mL (≈ 88.6 µM); MIC ([2]; Staphylococcus aureus, HIP10540, VI-MRSA, America): 8 µg/mL (≈ 22.1 µM); MIC ([2]; Staphylococcus aureus, HIP12864, VI-MRSA, America): 32 µg/mL (≈ 88.6 µM); MIC ([2]; Staphylococcus aureus, HIP13036, VI-MRSA, America): 4 µg/mL (≈ 11.1 µM); MIC ([2]; Staphylococcus aureus, HIP13057, VI-MRSA, America): 16 µg/mL (≈ 44.3 µM); MIC ([2]; Staphylococcus aureus, IL (HIP7737), VI-MRSA, America): 32 µg/mL (≈ 88.6 µM); MIC ([2]; Staphylococcus aureus, JCSC7193, VI-MRSA, Thailand): 16 µg/mL (≈ 44.3 µM); MIC ([2]; Staphylococcus aureus, JCSC7195, VI-MRSA, Thailand): 32 µg/mL (≈ 88.6 µM); MIC ([2]; Staphylococcus aureus, JCSC7203, VI-MRSA, Thailand): 16 µg/mL (≈ 44.3 µM); MIC ([2]; Staphylococcus aureus, LIM2, VI-MRSA, France): 32 µg/mL (≈ 88.6 µM); MIC ([2]; Staphylococcus aureus, LY-1999-01, VI-MSSA, Oman): 4 µg/mL (≈ 11.1 µM); MIC ([2]; Staphylococcus aureus, LY-1999-03, VI-MRSA, Oman): 4 µg/mL (≈ 11.1 µM); MIC ([2]; Staphylococcus aureus, MI (HIP5827), VI-MRSA, America): 32 µg/mL (≈ 88.6 µM); MIC ([2]; Staphylococcus aureus, MRSA / MSSA / NRS 76 / VISA, NRS76, VI-MSSA, America): 16 µg/mL (≈ 44.3 µM); MIC ([2]; Staphylococcus aureus, MRSA / MSSA / NRS 79 / VISA, NRS79, VI-MRSA, America): 64 µg/mL (≈ 177 µM); MIC ([2]; Staphylococcus aureus, MRSA / MSSA / NRS 118 / VISA, NRS118, VI-MRSA, America): 32 µg/mL (≈ 88.6 µM); MIC ([2]; Staphylococcus aureus, MRSA / MSSA / NRS 126 / VISA, NRS126, VI-MRSA, America): 4 µg/mL (≈ 11.1 µM); MIC ([2]; Staphylococcus aureus, Mu3, VI-MRSA, Japan): 16 µg/mL (≈ 44.3 µM); MIC ([2]; Staphylococcus aureus, Mu50, VI-MRSA, Japan): 8 µg/mL (≈ 22.1 µM); MIC ([2]; Staphylococcus aureus, NJ (HIP5836), VI-MRSA, America): 16 µg/mL (≈ 44.3 µM); MIC ([2]; Staphylococcus aureus, P1V44, VI-MSSA, Belgium): 4 µg/mL (≈ 11.1 µM); MIC ([2]; Staphylococcus aureus, PC, VI-MRSA, America): 8 µg/mL (≈ 22.1 µM); MIC ([2]; Staphylococcus aureus, SA MER-S6, VI-MSSA, France): 0.5 µg/mL (≈ 1.38 µM); MIC ([2]; Staphylococcus aureus, SA MER-S12, VI-MSSA, France): 0.5 µg/mL (≈ 1.38 µM); MIC ([2]; Staphylococcus aureus, SA MER-S20, VI-MSSA, France): 0.125 µg/mL (≈ 0.346 µM); MIC ([3]; VRS1, VRSA, Michigan): 16 µg/mL (≈ 44.3 µM); MIC ([3]; VRS2, VRSA, Pennsylvania): 16 µg/mL (≈ 44.3 µM); MIC ([3]; VRS3, VRSA, New York): 16 µg/mL (≈ 44.3 µM); MIC ([3]; VRS4, VRSA, New York): 32 µg/mL (≈ 88.6 µM); MIC ([3]; VRS5, VRSA, Michigan): > 128 µg/mL; MIC ([3]; VRS6, VRSA, Michigan): 32 µg/mL (≈ 88.6 µM); MIC ([3]; VRS7, VRSA, Michigan): 32 µg/mL (≈ 88.6 µM); MIC ([4]; E. faecalis 36-15672, quinolone-susceptible enterococci): 1 µg/mL (≈ 2.77 µM); MIC ([4]; E. faecalis 36-15673, quinolone-susceptible enterococci): 1 µg/mL (≈ 2.77 µM); MIC ([4]; E. faecalis 36-15678, quinolone-susceptible enterococci): 1 µg/mL (≈ 2.77 µM); MIC ([4]; E. faecalis 36-15686, quinolone-resistant enterococci): 64 µg/mL (≈ 177 µM); MIC ([4]; E. faecalis 36-15688, quinolone-susceptible enterococci): 1 µg/mL (≈ 2.77 µM); MIC ([4]; E. faecalis 36-15694, quinolone-resistant enterococci): 64 µg/mL (≈ 177 µM); MIC ([4]; E. faecalis 36-15696, quinolone-susceptible enterococci): 1 µg/mL (≈ 2.77 µM); MIC ([4]; E. faecalis 36-15703, quinolone-resistant enterococci): 32 µg/mL (≈ 88.6 µM); MIC ([4]; E. faecalis 36-15716, quinolone-resistant enterococci): 32 µg/mL (≈ 88.6 µM); MIC ([4]; E. faecalis 36-15718, quinolone-susceptible enterococci): 2 µg/mL (≈ 5.53 µM); MIC ([4]; E. faecalis 36-15720, quinolone-susceptible enterococci): 1 µg/mL (≈ 2.77 µM); MIC ([4]; E. faecalis 36-15722, quinolone-resistant enterococci): 64 µg/mL (≈ 177 µM); MIC ([4]; E. faecalis 36-15726, quinolone-resistant enterococci): 64 µg/mL (≈ 177 µM); MIC ([4]; E. faecalis 36-15730, quinolone-susceptible enterococci): 2 µg/mL (≈ 5.53 µM); MIC ([4]; E. faecalis 36-15736, quinolone-susceptible enterococci): 1 µg/mL (≈ 2.77 µM); MIC ([4]; E. faecalis 36-15741, quinolone-susceptible enterococci): 2 µg/mL (≈ 5.53 µM); MIC ([4]; NCTC 12201 / VRE, E. faecalis NCTC12201, vancomycin-resistant (VRE), quinolone-susceptible enterococci): 1 µg/mL (≈ 2.77 µM); MIC ([4]; NCTC 12203 / VRE, E. faecalis NCTC12203, vancomycin-resistant (VRE), quinolone-susceptible enterococci): 1 µg/mL (≈ 2.77 µM)
